The values that follow come from patent US20120220567A1, “BENZO-FUSED OXAZEPINE COMPOUNDS AS STEAROYL-COENZYME A DELTA-9 DESATURASE INHIBITORS” (priority 2009, published 2012).

SMILES strings stand for the structures.

The target in the first assay is T1, SCD-1 (Homo sapiens, UniProt O00767).
T1 construct: 50 μg of protein from a HepG2 cell P2 pellet; endogenous in cells; host or cells: HepG2 cells (P2 pellet)
T1 sequence (O00767 1-359): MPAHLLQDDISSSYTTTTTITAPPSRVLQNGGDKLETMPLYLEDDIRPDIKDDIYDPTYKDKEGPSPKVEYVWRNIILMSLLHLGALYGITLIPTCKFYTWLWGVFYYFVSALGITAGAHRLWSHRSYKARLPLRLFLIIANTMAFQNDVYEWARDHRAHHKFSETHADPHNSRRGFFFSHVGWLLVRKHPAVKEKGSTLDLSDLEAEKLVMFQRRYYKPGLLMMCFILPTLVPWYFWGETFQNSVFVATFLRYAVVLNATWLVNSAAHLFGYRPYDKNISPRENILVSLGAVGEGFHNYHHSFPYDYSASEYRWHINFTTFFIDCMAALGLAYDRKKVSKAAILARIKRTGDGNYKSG
Kind of assay: Stearoyl-CoA desaturase assay (HepG2 cell P2 pellet). To be noted: Table 1, compounds of formula (Ia); protein from HepG2 cell P2 pellet, 20 μM stearoyl-CoA, 15 min at 25° C.; read-out: Ave IC50. It is filed as biochemical. The procedure:
Stearoyl-CoA desaturase assays were performed in according to Talamo and Bloch. […] Assays were run in triplicate in 100-μl volumes of 100 mM TrisHCl, pH 7.3, containing 20 μM stearoyl-CoA, 2 mM β-NADH, and 50 μg of protein from a HepG2 cell P2 pellet. Since SCD-1 is the only isoform of SCD expressed in these cells, the assay is specific for SCD-1 with these cells as the source of enzyme. Reaction mixtures were incubated fifteen minutes at 25° C. and reactions were then stopped with a volume of trichloroacetic acid giving a final concentration of 0.2%. After five minutes, a 90-μl volume was transferred to a Millipore Multiscreen HTS 96-well filtration plate (MSHVN4B50) containing 125 μl of 10% charcoal in each well, to which vacuum had been previously applied. Plates were shaken fifteen minutes and then filtered into a collection plate. Fifty-μI volumes of filtrate were transferred to another plate containing 150 μl of MicroScint 40 for counting on a TopCount scintillation counter.
Usually IC50 stands for the concentration needed to halve the response being measured. Consider `CCc1ccc(CN2CCC3(CCN(C(=O)CNC(=O)Cc4ccccn4)CC3)Oc3ccccc32)cc1` [Compound 10], for which the IC50 is above 10000 nM.

For `CC(=O)NCC(=O)N1CCC2(CC1)CCN(Cc1cccc(C(F)(F)F)c1)c1ccccc1O2` [Compound 1, N-(2-oxo-2-(5-(3-(trifluoromethyl)benzyl)-4,5-dihydro-3H-spiro[benzo[b][1,4]oxazepine-2,4′-piperidine]-1′-yl)ethyl)acetamide], the half-maximal inhibitory concentration (IC50) was above 10000 nM.

In the case of `CC(=O)NCC(=O)N1CCC2(CC1)CCN(Cc1ccc(Br)cc1)c1ccccc1O2` [Compound 40], the IC50 was in the range of 500 to 10000 nM.

`CCc1ccc(CN2CCC3(CCN(C(=O)CNC(C)=O)CC3)Oc3c(F)cccc32)cc1` [Compound 47]: the IC50 lay within 500 to 10000 nM.

For `CC(=O)NCC(=O)N1CCC2(CC1)CCN(Cc1ccccc1)c1ccccc1O2` [Compound 30], the IC50 lay in the range of 500 to 10000 nM.

As to `CC(=O)NCC(=O)N1CCC2(CC1)CCN(Cc1ccc(OC(F)(F)F)cc1)c1ccccc1O2` [Compound 22], the IC50 lay within 500 to 10000 nM.

`CC(=O)NCC(=O)N1CCC2(CC1)CCN(Cc1cccc(Br)c1)c1ccccc1O2` [Compound 39]: the IC50 was 500 to 10000 nM.

As for `CCc1ccc(CN2CCC3(CCN(C(=O)CNC(=O)CCN(C)C)CC3)Oc3ccccc32)cc1` [Compound 9], the concentration for half-maximal inhibition (IC50) is above 10000 nM.

Turning to `COc1ccccc1CN1CCC2(CCN(C(=O)CNC(C)=O)CC2)Oc2ccccc21` [Compound 24], the half-maximal inhibitory concentration (IC50) lay in the range of 500 to 10000 nM.

For the molecule `CC(=O)NCC(=O)N1CCC2(CC1)CCN(Cc1cccc(F)c1)c1ccccc1O2` [Compound 29], the IC50 was in the range of 500 to 10000 nM.

Still in this assay, the particulars now being: Table 2, compounds of formula (Ib); protein from HepG2 cell P2 pellet, 20 μM stearoyl-CoA, 15 min at 25° C.; read-out: Ave IC50.
Consider `CC(C)(C)c1ccc(CN2CCC3(CCN(c4ncc(C(=O)NCC5CCCO5)s4)CC3)Oc3c(F)cccc32)cc1` (stereo not shown) [Compound 79], for which the IC50 lay in the range of 50 to 499 nM.

Regarding `Cn1cnc(-c2cnc(N3CCC4(CC3)CCN(Cc3ccc(C(C)(C)C)cc3)c3ccccc3O4)s2)n1` [Compound 73], the IC50 is 0.5 to 49 nM.

Take `CC(C)(C)c1ccc(CN2CCC3(CCN(c4ncc(C(=O)O)s4)CC3)Oc3c(F)cccc32)cc1` [Compound 74]: the IC50 was in the range of 0.5 to 49 nM.

Regarding `COC(=O)CCNC(=O)c1cnc(N2CCC3(CC2)CCN(Cc2ccc(C(C)(C)C)cc2)c2ccccc2O3)s1` [Compound 69], the IC50 fell in the range of 0.5 to 49 nM.

As for `CC(C)(C)c1ccc(CN2CCC3(CCN(c4ncc(C(N)=O)s4)CC3)Oc3c(F)cccc32)cc1` [Compound 76], the IC50 lay in the range of 0.5 to 49 nM.

Turning to `CC(C)(C)c1ccc(CN2CCC3(CCN(c4ncc(C(=O)NCc5ccco5)s4)CC3)Oc3c(F)cccc32)cc1` [Compound 102], the IC50 was in the range of 500 to 10000 nM.

Take `CC(C)(C)c1ccc(CN2CCC3(CCN(c4ncc(C(=O)NCCN5CCCC5=O)s4)CC3)Oc3c(F)cccc32)cc1` [Compound 81]: the IC50 lay in the range of 500 to 10000 nM.

Consider `CC(C)(C)c1ccc(CN2CCC3(CCN(c4ncc(-c5cncnc5)s4)CC3)Oc3ccccc32)cc1` [Compound 135], for which the concentration for half-maximal inhibition (IC50) fell in the range of 50 to 499 nM.

On to `CC(C)(C)c1ccc(CN2CCC3(CCN(c4ncc(C(=O)NC[C@H](O)CO)s4)CC3)Oc3ccccc32)cc1` [Compound 126], for which the IC50 lay within 0.5 to 49 nM.

Consider `CNC(=O)c1cnc(N2CCC3(CC2)CCN(Cc2cccc(C(F)(F)F)c2)c2ccccc2O3)s1` [Compound 58, N-methyl-2-(5-(3-(trifluoromethyl)benzyl)-4,5-dihydro-3H-spiro[benzo[b][1,4]oxazepine-2,4′-piperidine]-1′-yl)thiazole-5-carboxamide], for which the 50% inhibitory concentration (IC50) lay within 0.5 to 49 nM.

Take `CC(C)(C)c1ccc(CN2CCC3(CCN(c4ncc(C(=O)NCCc5cccs5)s4)CC3)Oc3c(F)cccc32)cc1` [Compound 83]: the half-inhibitory concentration (IC50) lay in the range of 500 to 10000 nM.

Take `CCCNC(=O)c1cnc(N2CCC3(CC2)CCN(Cc2ccc(C(C)(C)C)cc2)c2cccc(F)c2O3)s1` [Compound 94]: the IC50 was in the range of 50 to 499 nM.

Turning to `CC(C)(C)c1ccc(CN2CCC3(CCN(c4ncc(-c5ccc(C#N)cc5)s4)CC3)Oc3ccccc32)cc1` [Compound 137], the IC50 is 500 to 10000 nM.

For `CC(C)(C)c1ccc(CN2CCC3(CCN(c4ncc(C(=O)NCC5OCCO5)s4)CC3)Oc3c(F)cccc32)cc1` [Compound 88], the half-inhibitory concentration (IC50) was 0.5 to 49 nM.

`Cc1cc(CNC(=O)c2cnc(N3CCC4(CC3)CCN(Cc3ccc(C(C)(C)C)cc3)c3cccc(F)c3O4)s2)no1` [Compound 97]: the IC50 is 500 to 10000 nM.

Regarding `CC(C)(C)c1ccc(CN2CCC3(CCN(c4ncc(C(=O)NCCCN5CCCC5)s4)CC3)Oc3c(F)cccc32)cc1` [Compound 117], the IC50 is above 10000 nM.

With `CC(C)(C)c1ccc(CN2CCC3(CCN(c4ncc(C(=O)O)s4)CC3)Oc3ccccc32)cc1` [Compound 64], the IC50 was in the range of 50 to 499 nM.

With `CC(C)(C)c1ccc(CN2CCC3(CCN(c4ncc(C(=O)NCCCCCC(=O)O)s4)CC3)Oc3c(F)cccc32)cc1` [Compound 124], the IC50 was 500 to 10000 nM.

Consider `CCNC(=O)c1cnc(N2CCC3(CC2)CCN(Cc2ccc(C(C)(C)C)cc2)c2ccccc2O3)s1` [Compound 68], for which the IC50 lay in the range of 0.5 to 49 nM.

`CC(C)(C)c1ccc(CN2CCC3(CCN(c4ncc(C(=O)NCC[C@H]5CC[C@H](O)C5)s4)CC3)Oc3c(F)cccc32)cc1` [Compound 80]: the IC50 fell in the range of 500 to 10000 nM.

On to `O=C(NCCC1CC1)c1cnc(N2CCC3(CC2)CCN(Cc2cccc(C(F)(F)F)c2)c2ccccc2O3)s1` [Compound 51], for which the half-maximal inhibitory concentration (IC50) is 500 to 10000 nM.

For the molecule `CC(C)(C)c1ccc(CN2CCC3(CCN(c4ncc(-c5ccccc5)s4)CC3)Oc3ccccc32)cc1` [Compound 138], the IC50 lay within 500 to 10000 nM.

As for `CCN(C)C(=O)c1cnc(N2CCC3(CC2)CCN(Cc2ccc(C(C)(C)C)cc2)c2ccccc2O3)s1` [Compound 66], the half-inhibitory concentration (IC50) lay within 50 to 499 nM.

`Cc1cnc(CNC(=O)c2cnc(N3CCC4(CC3)CCN(Cc3ccc(C(C)(C)C)cc3)c3cccc(F)c3O4)s2)cn1` [Compound 112]: the IC50 lay within 500 to 10000 nM.

For the molecule `COCCCNC(=O)c1cnc(N2CCC3(CC2)CCN(Cc2ccc(C(C)(C)C)cc2)c2cccc(F)c2O3)s1` [Compound 108], the IC50 fell in the range of 50 to 499 nM.

Take `CC(C)(C)c1ccc(CN2CCC3(CCN(c4ncc(C(=O)NCc5ccccc5)s4)CC3)Oc3ccccc32)cc1` [Compound 67]: the IC50 fell in the range of 500 to 10000 nM.

Take `CC(C)(C)c1ccc(CN2CCC3(CCN(c4ncc(C(=O)NCCCn5ccnn5)s4)CC3)Oc3c(F)cccc32)cc1` [Compound 86]: the IC50 fell in the range of 500 to 10000 nM.

Turning to `CC(C)(C)c1ccc(CN2CCC3(CCN(c4ncc(C(=O)NCCc5ccsc5)s4)CC3)Oc3c(F)cccc32)cc1` [Compound 92], the 50% inhibitory concentration (IC50) lay within 500 to 10000 nM.

With `O=C(O)CCNC(=O)c1cnc(N2CCC3(CC2)CCN(Cc2cccc(C(F)(F)F)c2)c2cccc(F)c2O3)s1` [Compound 133], the half-maximal inhibitory concentration (IC50) lay within 0.5 to 49 nM.

Still in this assay, the particulars now being: Table 3, compounds of formula (Ic); protein from HepG2 cell P2 pellet, 20 μM stearoyl-CoA, 15 min at 25° C.; read-out: Ave IC50.
For `COC(=O)c1ccc(N2CCC3(CC2)CCN(Cc2ccc(C(C)(C)C)cc2)c2cccc(F)c2O3)nc1` [Compound 143], the IC50 lay in the range of 50 to 499 nM.

Take `CCCCNC(=O)c1ccc(N2CCC3(CC2)CCN(Cc2cccc(C(F)(F)F)c2)c2ccccc2O3)nn1` [Compound 156]: the half-maximal inhibitory concentration (IC50) was in the range of 0.5 to 49 nM.

As to `CC(C)(C)c1ccc(CN2CCC3(CCN(c4ccc(C(=O)NCCC5CC5)nn4)CC3)Oc3c(F)cccc32)cc1` [Compound 150], the half-maximal inhibitory concentration (IC50) lay in the range of 50 to 499 nM.

As to `O=C(NCCC1CC1)c1ccc(N2CCC3(CC2)CCN(Cc2cccc(C(F)(F)F)c2)c2ccccc2O3)nc1` [Compound 169], the IC50 fell in the range of 0.5 to 49 nM.

On to `O=C(NCCC1CC1)c1ccc(N2CCC3(CC2)CCN(Cc2cccc(C(F)(F)F)c2)c2ccccc2O3)cc1` [Compound 171], for which the IC50 fell in the range of 500 to 10000 nM.

On to `O=C(NCCc1ccncc1)c1ccc(N2CCC3(CC2)CCN(Cc2cccc(C(F)(F)F)c2)c2cccc(F)c2O3)nn1` [Compound 174], for which the 50% inhibitory concentration (IC50) was 0.5 to 49 nM.

Consider `NC(=O)c1ccc(N2CCC3(CC2)CCN(Cc2cccc(C(F)(F)F)c2)c2ccccc2O3)nn1` [Compound 164], for which the IC50 fell in the range of 0.5 to 49 nM.

In the case of `COC(=O)CCNC(=O)c1ccc(N2CCC3(CC2)CCN(Cc2cccc(C(F)(F)F)c2)c2ccccc2O3)nn1` [Compound 166], the IC50 is 0.5 to 49 nM.

For `COC(=O)c1ccc(N2CCC3(CC2)CCN(Cc2ccc(C(C)(C)C)cc2)c2ccccc2O3)nn1` [Compound 139], the IC50 is 500 to 10000 nM.

As to `O=C(NCCc1ccncc1)c1ccc(N2CCC3(CC2)CCN(Cc2cccc(C(F)(F)F)c2)c2ccccc2O3)nn1` [Compound 165], the half-inhibitory concentration (IC50) was 0.5 to 49 nM.

For `O=C(NCCC1CC1)c1ccc(N2CCC3(CC2)CCN(Cc2cc4ccccc4o2)c2ccccc2O3)nn1` [Compound 180], the 50% inhibitory concentration (IC50) lay in the range of 0.5 to 49 nM.

Take `CC(C)Oc1ccc(CN2CCC3(CCN(c4ccc(C(=O)NCCC5CC5)nn4)CC3)Oc3ccccc32)cc1` [Compound 178]: the IC50 lay in the range of 0.5 to 49 nM.

For `CC(C)Oc1ccc(CN2CCC3(CCN(c4ccc(C(N)=O)nn4)CC3)Oc3ccccc32)cc1` [Compound 179], the 50% inhibitory concentration (IC50) is 0.5 to 49 nM.
